From patent US4803266A, “3-Oxoalkylidene-2-azetidinone derivatives” (Taisho Pharmaceutical Co., Ltd., priority 1986, dated 1989) come the findings set out here.

Experiment [1] relates to blood platelet aggregation. The experiment is described as follows: Blood platelet aggregation inhibition in vitro in rabbit PRP, ADP induced. The experiment is classed as cell-based, male, New Zealand strain house rabbit. Particulars: Oryctolagus cuniculus, ADP final concentration 5 μM, 37° C., 3 minutes preincubation, 50% inhibition of maximum aggregation rate. The method, then:
(§1) Citrated blood (one volume of 3.2% sodium citrate; 9 volumes of blood) was collected from carotid artery of male, New Zealand strain house rabbit, centrifuged at 150 g for 15 minutes to give platelet rich plasma (PRP) as a supernatant, and the remaining blood was centrifuged at 1500 g for 10 minutes to give platelet poor plasma (PPP) as a supernatant. The platelet count of PRP was adjusted to 50-60×10^4 /μl by dilution of PPP. Blood platelet aggregation was carried out according to the method of Born [Born, G. V. R., Nature, 194, 927 (1962)]. Namely, 25 μl of the test drug, (all the test drugs were dissolved in dimethyl sulfoxide and adjusted to the desired concentration with physiological saline solution), was added to 250 μl of PRP, and the mixture was incubated at 37° C. for 3 minutes. 25 μl of the aggregation inducing substance [adenosine diphosphate (ADP); final concentration 5 μM or collagen: final concentration 5 μg/ml] was added, the mixture was measured for 5 minutes by blood platelet aggregation ability measurement apparatus (Aggricoda TM-PA-3210, Kyoto Dai-ichi Kagaku) to obtain the maximum aggregation rate, and there was calculated the concentration of the test drug (ICP50) which brings about 50% inhibition to the maximum aggregation rate obtained by adding the aggregation inducing substance to PRP containing the solvent only.
(§2) The compound numbers in Table 1 correspond to those in the Examples described below.

The subject of experiment [2] is blood platelet aggregation. The experiment is described as follows: Blood platelet aggregation inhibition in vitro in rabbit PRP, collagen induced. The experiment is classed as cell-based, male, New Zealand strain house rabbit. Particulars: Oryctolagus cuniculus, collagen final concentration 5 μg/ml, 37° C., 3 minutes preincubation, 50% inhibition of maximum aggregation rate. The procedure:
as §1, §2

The structures appear in SMILES notation.

As usually defined, the IC50 is the point on the concentration scale where inhibition reaches its midpoint. As for `CC(=O)/C=C1/C(=O)N(c2ccccc2)C1c1ccccc1` (stereo not shown) [Compound 1, (E)-3-(2-oxopropylidene)-1,4-diphenyl-2-azetidinone], the IC50 in experiment [1] was found to be 33 µM; in experiment [2], 14 µM.

`CCC(=O)/C=C1/C(=O)N(c2ccccc2)C1c1ccccc1` (stereo not shown) [Compound 2]: the IC50 in experiment [1] was 28 µM; in experiment [2], 32 µM.

For `O=C(/C=C1/C(=O)N(c2ccccc2)C1c1ccccc1)c1ccccc1` (stereo not shown) [Compound 4], the 50% inhibitory concentration (IC50) in experiment [1] came to 13 µM; in experiment [2], 16 µM.

Regarding `Cc1ccc(C(=O)/C=C2/C(=O)N(c3ccccc3)C2c2ccccc2)cc1` (stereo not shown) [Compound 5], the IC50 amounted to 24 µM in experiment [1] and 23.5 µM in experiment [2].

Regarding `COc1ccc(C(=O)/C=C2/C(=O)N(c3ccccc3)C2c2ccccc2)cc1` (stereo not shown) [Compound 6], the IC50 is 24 µM in experiment [1] and 18 µM in experiment [2].

For `COc1ccc(C(=O)/C=C2/C(=O)N(c3ccccc3)C2c2ccccc2)c(OC)c1` (stereo not shown) [Compound 7], the IC50 in experiment [1] was determined as 12 µM; in experiment [2], 23 µM.

`O=C(/C=C1/C(=O)N(c2ccccc2)C1c1ccccc1)c1ccc(F)cc1` (stereo not shown) [Compound 8]: the 50% inhibitory concentration (IC50) in experiment [1] came out at 9.2 µM; in experiment [2] it was 13.6 µM.

As for `O=C(/C=C1/C(=O)N(c2ccccc2)C1c1ccccc1)c1ccc(Cl)cc1` (stereo not shown) [Compound 9], the IC50 came to 15 µM in experiment [1] and 12 µM in experiment [2].

In the case of `O=C(/C=C1/C(=O)N(c2ccccc2)C1c1ccccc1)c1ccc(Br)cc1` (stereo not shown) [Compound 10], the IC50 in experiment [1] came out at 36 µM; in experiment [2] it was 26 µM.

As for `O=C(/C=C1/C(=O)N(c2ccccc2)C1c1ccccc1)c1ccc(-c2ccccc2)cc1` (stereo not shown) [Compound 11], the values for the IC50 in experiment [1] and in experiment [2] were more than 30 µM and 22 µM, respectively.

Turning to `O=C(/C=C1/C(=O)N(c2ccccc2)C1c1ccccc1)c1ccc([N+](=O)[O-])cc1` (stereo not shown) [Compound 12], the results for the concentration for half-maximal inhibition (IC50) in experiment [1] and in experiment [2] were 5.6 µM and 4.7 µM, respectively.

For the compound `CCOC(=O)CC(=O)/C=C1/C(=O)N(c2ccccc2)C1c1ccccc1` (stereo not shown) [Compound 15], the half-maximal inhibitory concentration (IC50) worked out at 21.5 µM in experiment [1] and 16.6 µM in experiment [2].

Consider `COc1ccc(C(=O)/C=C2/C(=O)N(c3ccccc3C)C2c2ccccc2)cc1` (stereo not shown) [Compound 16], for which the figures for the concentration for half-maximal inhibition (IC50) in experiment [1] and in experiment [2] were 12.5 µM and 4.1 µM, respectively.

On to `Cc1ccccc1N1C(=O)/C(=C/C(=O)c2ccc(F)cc2)C1c1ccccc1` (stereo not shown) [Compound 17], for which the values for the IC50 in experiment [1] and in experiment [2] were 7.7 µM and 5 µM, respectively.

As to `Cc1ccccc1N1C(=O)/C(=C/C(=O)c2ccc([N+](=O)[O-])cc2)C1c1ccccc1` (stereo not shown) [Compound 18], the figures for the concentration for half-maximal inhibition (IC50) in experiment [1] and in experiment [2] were 6.6 µM and 3.2 µM, respectively.

In experiment [1], `Cc1ccc(C(=O)/C=C2/C(=O)N(c3ccc(Cl)cc3C)C2c2ccccc2)cc1` (stereo not shown) [Compound 21] had an IC50 of 30.9 µM.

In experiment [1], `COc1ccc(C(=O)/C=C2/C(=O)N(c3ccc(Cl)cc3C)C2c2ccccc2)cc1` (stereo not shown) [Compound 22] gave an IC50 of 41.3 µM.

In experiment [1], `Cc1cc(Cl)ccc1N1C(=O)/C(=C/C(=O)c2ccc([N+](=O)[O-])cc2)C1c1ccccc1` (stereo not shown) [Compound 24] displayed an IC50 of 6.4 µM.

For the compound `CC(=O)/C=C1/C(=O)N(c2cc(Cl)ccc2C)C1c1ccccc1` (stereo not shown) [Compound 25], the IC50 worked out at 11.1 µM in experiment [1] and 6.6 µM in experiment [2].

For `Cc1ccc(Cl)cc1N1C(=O)/C(=C/C(=O)c2ccccc2)C1c1ccccc1` (stereo not shown) [Compound 26], the figures for the 50% inhibitory concentration (IC50) in experiment [1] and in experiment [2] were 16.5 µM and 9.5 µM, respectively.

Consider `O=C(/C=C1/C(=O)N(c2ccc(F)cc2)C1c1ccccc1)c1ccccc1` (stereo not shown) [Compound 29], for which the figures for the IC50 in experiment [1] and in experiment [2] were 9 µM and 8.1 µM, respectively.

Consider `O=C(/C=C1/C(=O)N(c2ccc(F)cc2)C1c1ccccc1)c1ccc([N+](=O)[O-])cc1` (stereo not shown) [Compound 32], for which the half-maximal inhibitory concentration (IC50) in experiment [1] came to 3.5 µM; in experiment [2] it was 3.8 µM.

`O=C(/C=C1/C(=O)N(c2ccccc2F)C1c1ccccc1)c1ccc(F)cc1` (stereo not shown) [Compound 33]: the half-maximal inhibitory concentration (IC50) was found to be 11.9 µM in experiment [1] and 12.5 µM in experiment [2].

Take `O=C(/C=C1/C(=O)N(c2ccccc2F)C1c1ccccc1)c1ccc([N+](=O)[O-])cc1` (stereo not shown) [Compound 34]: the half-maximal inhibitory concentration (IC50) worked out at 8.2 µM in experiment [1] and 6.6 µM in experiment [2].

With `O=C(/C=C1/C(=O)N(c2cc(Cl)cc(Cl)c2)C1c1ccccc1)c1ccc(F)cc1` (stereo not shown) [Compound 37], the IC50 turned out to be 21.2 µM in experiment [1] and 17.8 µM in experiment [2].

Consider `O=C(/C=C1/C(=O)N(c2cc(Cl)cc(Cl)c2)C1c1ccccc1)c1ccc([N+](=O)[O-])cc1` (stereo not shown) [Compound 38], for which the IC50 was 9 µM in experiment [1] and 4.6 µM in experiment [2].

`COc1ccc(C(=O)/C=C2/C(=O)N(c3ccc(Br)cc3)C2c2ccccc2)cc1` (stereo not shown) [Compound 39]: the half-maximal inhibitory concentration (IC50) in experiment [1] and in experiment [2] was more than 30 µM throughout.

Take `O=C(/C=C1/C(=O)N(c2ccc(Br)cc2)C1c1ccccc1)c1ccc(F)cc1` (stereo not shown) [Compound 40]: the IC50 stood at 11.3 µM in experiment [1] and 13.2 µM in experiment [2].

Regarding `O=C(/C=C1/C(=O)N(c2ccc(Br)cc2)C1c1ccccc1)c1ccc([N+](=O)[O-])cc1` (stereo not shown) [Compound 41], the values for the half-inhibitory concentration (IC50) in experiment [1] and in experiment [2] were 4.2 µM and 5.1 µM, respectively.

As for `O=C(/C=C1/C(=O)N(c2cccc(C(F)(F)F)c2)C1c1ccccc1)c1ccccc1` (stereo not shown) [Compound 43], the IC50 came out at 14 µM in experiment [1] and 7.7 µM in experiment [2].

As to `O=C(/C=C1/C(=O)N(c2cccc(C(F)(F)F)c2)C1c1ccccc1)c1ccc(F)cc1` (stereo not shown) [Compound 44], the IC50 in experiment [1] was found to be 10.3 µM; in experiment [2], 7.3 µM.

Regarding `O=C(/C=C1/C(=O)N(c2cccc(C(F)(F)F)c2)C1c1ccccc1)c1ccc([N+](=O)[O-])cc1` (stereo not shown) [Compound 45], the IC50 worked out at 4.4 µM in experiment [1] and 5.2 µM in experiment [2].

Compound `O=C(/C=C1/C(=O)N(Cc2ccccc2)C1c1ccccc1)c1ccc(F)cc1` (stereo not shown) [Compound 52] came in with a half-maximal inhibitory concentration (IC50) in experiment [1] of 7.9 µM.

On to `O=C(/C=C1/C(=O)N(Cc2ccccc2)C1c1ccccc1)c1ccc([N+](=O)[O-])cc1` (stereo not shown) [Compound 53], for which the IC50 in experiment [1] was determined as 4.9 µM.

Regarding `CC(=O)/C=C1/C(=O)N(Cc2ccccc2Cl)C1c1ccccc1` (stereo not shown) [Compound 54], the half-inhibitory concentration (IC50) in experiment [1] turned out to be 11.2 µM; in experiment [2] it was 15.5 µM.

For the compound `O=C(/C=C1/C(=O)N(Cc2ccccc2Cl)C1c1ccccc1)c1ccc(F)cc1` (stereo not shown) [Compound 55], the IC50 in experiment [1] was found to be 10.5 µM; in experiment [2], 8.3 µM.

Regarding `O=C(/C=C1/C(=O)N(Cc2ccccc2Cl)C1c1ccccc1)c1ccc([N+](=O)[O-])cc1` (stereo not shown) [Compound 56], the IC50 was 2.9 µM in experiment [1] and 6.5 µM in experiment [2].

On to `CCc1ccc(C2/C(=C\C(=O)c3ccc(F)cc3)C(=O)N2c2ccccc2C)cc1` (stereo not shown) [Compound 67], for which the IC50 in experiment [1] worked out at 27.7 µM; in experiment [2] it was 11 µM.

Take `CCc1ccc(C2/C(=C\C(=O)c3ccc([N+](=O)[O-])cc3)C(=O)N2c2ccccc2C)cc1` (stereo not shown) [Compound 68]: the IC50 in experiment [1] is 13.6 µM; in experiment [2], 7.5 µM.

`O=C(/C=C1/C(=O)N(c2ccccc2)C1c1ccc(O)cc1)c1ccc([N+](=O)[O-])cc1` (stereo not shown) [Compound 75]: the figures for the IC50 in experiment [1] and in experiment [2] were 3.8 µM and 5.4 µM, respectively.

As to `O=C(/C=C1/C(=O)N(c2ccccc2)C1c1ccc(F)cc1)c1ccc(F)cc1` (stereo not shown) [Compound 76], the IC50 in experiment [1] worked out at 14.3 µM; in experiment [2], 10.5 µM.

As to `O=C(/C=C1/C(=O)N(c2ccccc2)C1c1ccc(F)cc1)c1ccc([N+](=O)[O-])cc1` (stereo not shown) [Compound 77], the figures for the IC50 in experiment [1] and in experiment [2] were 4.3 µM and 2.9 µM, respectively.
